Results reported in patent US7019014B2, “Process for producing anticancer agent LL-D45042” (Wyeth Holdings Corporation, priority 2003, dated 2006).
≈ marks a conversion by molar mass, not a printed value.

Columns and labels:
[1] = system: brain cancer line U87MG; settings: previously established; PTEN mutation, constitutive mTOR activation; cited from earlier work
[2] = system: breast cancer line MDA435; settings: previously established; no PTEN mutation; cited from earlier work
[3] = system: brain cancer line U87MG; assay: In vitro anticancer test: growth inhibition in U87MG tumour cells; assay type: cell-based; settings: Homo sapiens, U-87 MG, PTEN mutant, multi-dose testing
Protocol: (§1) The in vitro anticancer activity of LL-D45042 is determined by measuring the concentration of compound required to inhibit the growth of 50% of cells in two tumour cell lines. […] The elevated sensitivity is due to its genetic mutation in the PTEN tumor suppressor gene leading to constitutive activation of mTOR signaling pathway. […] LL-D45042 is also evaluated in a binding assay of FKBP12, a cellular receptor of rapamycin, to determine its binding affinity. The results are given in Table 2, with IC50's reported in units of ng/mL.
(§2) These determinations are made by multi-dose testing of LL-D45042 and direct comparisons to the reference samples.

[4] = system: breast cancer line MDA435; assay: In vitro anticancer test: growth inhibition in MDA435 tumour cells; assay type: cell-based; settings: no PTEN mutation, multi-dose testing
Protocol: as §1, §2

[5] = target: FKBP12 (Homo sapiens, UniProt P62942); assay: FKBP12 binding assay; settings: FKBP12, a cellular receptor of rapamycin; read-out: Protein Binding, FKBP (IC50) (converted)
Sequence of FKBP12 (P62942 whole entry, species assumed): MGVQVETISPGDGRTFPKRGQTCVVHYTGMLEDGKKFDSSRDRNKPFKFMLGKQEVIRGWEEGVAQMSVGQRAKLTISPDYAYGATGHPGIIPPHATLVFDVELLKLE
Protocol: as §1, §2

IC50 [3] [mg/L] | IC50 [4] [mg/L] | IC50 [5] [µM] | SMILES | Sensitivity of U87MG to growth inhibition [1] | Sensitivity of MDA435 to growth inhibition [2]
– | – | – | CO[C@H]1C[C@@H]2CC[C@@H](C)[C@@](O)(O2)C(=O)C(=O)N2CCCC[C@H]2C(=O)O[C@H]([C@H](C)C[C@@H]2CC[C@@H](O)[C@H](OC)C2)CC(=O)[C@H](C)/C=C(\C)[C@@H](O)[C@@H](OC)C(=O)[C@H](C)C[C@H](C)/C=C/C=C/C=C/1C [rapamycin, Rapamycin] | highly sensitive | rapamycin-resistant phenotype
0.035 (≈ 0.0401 µM) | > 1 | 0.401 | CO[C@@H]1C[C@H](C[C@@H](C)[C@@H]2CC(=O)[C@H](C)/C=C(\C)[C@@H](O)[C@@H](O)C(=O)[C@H](C)C[C@H](C)/C=C/C=C/C=C(\C)[C@@H](O)C[C@@H]3CC[C@@H](C)[C@](O)(CC(=O)N4CCCC[C@H]4C(=O)O2)O3)CC[C@H]1O [LL-D45042] | – | –
